# Values joined by “and” are separate entries in the source; they are usually repeats but may differ in a detail not shown here. Equal entries are not always repeated. Where two headings read alike, the source gives them in different places.
# Columns and labels:
# [1] = tested on: E. coli ATCC 25922, CH3130 ΔtolC, CGSC 5163 D22; test: MIC, wild-type vs efflux-defective and lps mutant; type: cell-based; settings: Escherichia coli
# [2] = tested on: Neisseria gonorrhoeae (n = 12); test: MIC broth microdilution at IHMA Europe; type: cell-based; settings: for MIC: Neisseria gonorrhoeae, read-out: MIC
# [3] = tested on: Haemophilus influenzae (n = 14); test: MIC broth microdilution at IHMA Europe; type: cell-based, H. influenzae; settings: for MIC: Haemophilus influenzae, read-out: MIC
# [4] = tested on: S. pneumoniae (n = 12); test: MIC broth microdilution at IHMA Europe; type: cell-based; settings: for MIC: Streptococcus pneumoniae, read-out: MIC
# [5] = tested on: HepG2 cell line; test: MTS cytotoxicity assay; type: cell-based, human
# Description: (§1) Briefly, Eagle’s minimum essential medium (Gibco, Thermo Fisher Scientific, Waltham, MA, USA) was used to culture the cells. The following supplements were added to the medium: L-glutamine (2 mM; Sigma-Aldrich, St. Louis, MO, USA), penicillin (100 U/mL; Sigma-Aldrich, St. Louis, MO, USA), streptomycin (100 μg/mL; Sigma-Aldrich, St. Louis, MO, USA), and fetal bovine serum (10%; Gibco, Thermo Fisher Scientific, Waltham, MA, USA). The cells were maintained at 37 °C in a humidified 5% CO2 atmosphere. The cells were plated in 96-well plates at a density of 2000 cells per well and incubated for 24 h. Then, the cells were treated with selected compounds, positive control (50 μM etoposide), or vehicle control (0.5% DMSO) and incubated for 72 h. The CellTiter96 Aqueous One Solution Reagent (10 μL; Promega, Madison, WI, USA) was then added to each well, and the plate was incubated for another 3 h. Absorbance at 490 nm was measured with a BioTek Synergy 4 Hybrid Microplate Reader (Winooski, VT, USA). Independent experiments were repeated three times, each performed in triplicate. Statistical significance (p < 0.05) was calculated with two-tailed Student’s t test between treated groups and DMSO. IC50 values (concentration of the compound that gives a half-maximal response) are given as average values from the independent measurements and were determined using GraphPad Prism 5.0 software (San Diego, CA, USA)
# [6] = tested on: MCF-7 cell line; test: MTS cytotoxicity assay; type: cell-based, human
# Description: as §1
# [7] = tested on: E. faecalis ATCC 29212; test: IHMA QC MIC; type: cell-based
# Text: (§2) Supplement jm2c01905_si_004.xlsx, sheet "QC" | column: MIC [µg/mL]
# [8] = tested on: H. influenzae ATCC 49247; test: IHMA QC MIC; type: cell-based; settings: Haemophilus influenzae
# Text: as §2
# [9] = tested on: H. influenzae ATCC 49766; test: IHMA QC MIC; type: cell-based
# Text: as §2
# [10] = tested on: N. gonorrhoeae ATCC 49226; test: IHMA QC MIC; type: cell-based; settings: Neisseria gonorrhoeae, ATCC49226
# Text: as §2
# [11] = tested on: S. pneumoniae ATCC 49619; test: IHMA QC MIC; type: cell-based
# Text: as §2
# [12] = tested on: P. aeruginosa ATCC 27853; set-up: method as in earlier work; settings: QC range for P. aeruginosa ATCC 27853, ref CLSI; cited from earlier work
# [13] = tested on: E. faecalis ATCC 29212; set-up: method as in earlier work; settings: QC range for E. faecalis ATCC 29212, ref CLSI; cited from earlier work
# [14] = tested on: H. influenzae ATCC 49247; set-up: method as in earlier work; settings: QC range for H. influenzae ATCC 49247, ref CLSI; cited from earlier work
# [15] = Enterococcus faecalis, ATCC29212
# [16] = QC strain E. faecalis ATCC 29212, test date 2021-11-26
# [17] = ATCC49247, QC strain H. influenzae ATCC 49247, test date 2021-11-11
# [18] = ATCC49247, QC strain H. influenzae ATCC 49247, test date 2021-11-26
# [19] = Haemophilus influenzae, ATCC49766
# [20] = QC strain H. influenzae ATCC 49766, test date 2021-11-26
# [21] = QC strain S. pneumoniae ATCC 49619, test date 2021-11-26
# [22] = Streptococcus pneumoniae, ATCC49619
smiles,measurement,setting,value
"Cc1[nH]c(C(=O)Nc2nc3c(N4CCOCC4)cc(C(=O)O)cc3s2)c(Cl)c1Cl [7a, 2-(3,4-Dichloro-5-methyl-1H-pyrrole-2-carboxamido)-4-morpholinobenzo[d]thiazole-6-carboxylic Acid]",MIC,"[1]; ATCC25922, E. coli ATCC 25922",8 µg/mL
same,MIC,"[1]; ATCC25922, E. coli CGSC 5163 D22, lps mutant, hypersensitive",2 µg/mL
same,MIC,"[1]; ATCC25922, E. coli CH3130 ΔtolC, efflux-defective",< 0.125 µg/mL
same,Cumulative % at MIC,[2],50.0% and 100.0%
same,No. of isolates at MIC,[2],6
same,No. of isolates at MIC,[2]; MIC 0.06 µg/mL,6
same,MIC,[2]; isolate IHMA 1123853,≤ 0.03 µg/mL
same,MIC,[2]; isolate IHMA 1130935,≤ 0.03 µg/mL
same,MIC,[2]; isolate IHMA 1130989,0.06 µg/mL
same,MIC,[2]; isolate IHMA 1130991,0.06 µg/mL
same,MIC,[2]; isolate IHMA 1137292,0.06 µg/mL
same,MIC,[2]; isolate IHMA 1145734,≤ 0.03 µg/mL
same,MIC,[2]; isolate IHMA 1145735,≤ 0.03 µg/mL
same,MIC,[2]; isolate IHMA 1165897,≤ 0.03 µg/mL
same,MIC,[2]; isolate IHMA 1194748,≤ 0.03 µg/mL
same,MIC,[2]; isolate IHMA 1194750,0.06 µg/mL
same,MIC,[2]; isolate IHMA 1546199,0.06 µg/mL
same,MIC,[2]; isolate IHMA 1546215,0.06 µg/mL
same,"MIC, all isolates",[2]; n = 12,≤ 0.06 µg/mL
same,No. of isolates at MIC,[3],3 and 6 and 4
same,MIC,[3]; H. influenzae IHMA N° 1227715,0.12 µg/mL
same,MIC,[3]; H. influenzae IHMA N° 1241620,0.25 µg/mL
same,MIC,[3]; H. influenzae IHMA N° 1244149,0.5 µg/mL
same,MIC,[3]; H. influenzae IHMA N° 1249803,0.12 µg/mL
same,MIC,[3]; H. influenzae IHMA N° 1254355,0.25 µg/mL
same,MIC,[3]; H. influenzae IHMA N° 1258580,0.5 µg/mL
same,MIC,[3]; H. influenzae IHMA N° 1262734,0.25 µg/mL
same,MIC,[3]; H. influenzae IHMA N° 1272723,0.25 µg/mL
same,MIC,[3]; H. influenzae IHMA N° 1286846,0.5 µg/mL
same,MIC,[3]; H. influenzae IHMA N° 1337530,0.12 µg/mL
same,MIC,[3]; H. influenzae IHMA N° 1440085,0.5 µg/mL
same,MIC,[3]; H. influenzae IHMA N° 1479509,1 µg/mL
same,MIC,[3]; H. influenzae IHMA N° 1952952,0.25 µg/mL
same,MIC,[3]; H. influenzae IHMA N° 2047461,0.25 µg/mL
same,Cumulative % at MIC,[3]; MIC 1 µg/mL,100.0%
same,No. of isolates at MIC,[3]; MIC 1 µg/mL,1
same,"MIC, all isolates",[3]; n = 14,≤ 1 µg/mL
same,Cumulative % at MIC,[4]; MIC […],25.0%
same,MIC,[4]; S. pneumoniae IHMA N° 1775387,0.5 µg/mL
same,MIC,[4]; S. pneumoniae IHMA N° 1776057,0.5 µg/mL
same,MIC,[4]; S. pneumoniae IHMA N° 1785617,0.25 µg/mL
same,MIC,[4]; S. pneumoniae IHMA N° 1800765,0.5 µg/mL
same,MIC,[4]; S. pneumoniae IHMA N° 1811259,0.06 µg/mL
same,MIC,[4]; S. pneumoniae IHMA N° 1831562,0.5 µg/mL
same,MIC,[4]; S. pneumoniae IHMA N° 1902609,0.5 µg/mL
same,MIC,[4]; S. pneumoniae IHMA N° 1979675,0.5 µg/mL
same,MIC,[4]; S. pneumoniae IHMA N° 1991963,0.5 µg/mL
same,MIC,[4]; S. pneumoniae IHMA N° 2057487,0.5 µg/mL
same,MIC,[4]; S. pneumoniae IHMA N° 2073087,0.5 µg/mL
same,MIC,[4]; S. pneumoniae IHMA N° 2117109,0.12 µg/mL
same,"MIC, all isolates",[4]; n = 12,≤ 0.5 µg/mL
same,cytotoxic concentration (no cytotoxicity up to),"[5]; with serum, 72 h",> 100 µM
same,cytotoxic concentration (no cytotoxicity up to),[5]; without fetal bovine serum,> 100 µM
same,cytotoxic concentration (no cytotoxicity up to),"[6]; with serum, 72 h",> 100 µM
same,cytotoxic concentration (no cytotoxicity up to),[6]; without fetal bovine serum,> 100 µM
same,MIC,[7]; [15],0.06 µg/mL
same,MIC,[7]; [16],0.06 µg/mL
same,MIC,[8]; [17],0.25 µg/mL
same,MIC,[8]; [18],0.06 µg/mL
same,MIC,[9]; [19],0.25 µg/mL
same,MIC,[9]; [20],0.25 µg/mL
same,MIC,[10],≤ 0.03 µg/mL
same,MIC,[11]; [21],0.25 µg/mL
same,MIC,[11]; [22],0.25 µg/mL
"C[C@H]1COc2c(N3CCN(C)CC3)c(F)cc3c(=O)c(C(=O)O)cn1c23.C[C@H]1COc2c(N3CCN(C)CC3)c(F)cc3c(=O)c(C(=O)O)cn1c23.O [Levofloxacin, levofloxacin]",MIC,[3]; H. influenzae IHMA N° 1227715,0.015 µg/mL
same,MIC,[3]; H. influenzae IHMA N° 1241620,≤ 0.004 µg/mL
same,MIC,[3]; H. influenzae IHMA N° 1244149,0.015 µg/mL
same,MIC,[3]; H. influenzae IHMA N° 1249803,0.015 µg/mL
same,MIC,[3]; H. influenzae IHMA N° 1254355,0.12 µg/mL
same,MIC,[3]; H. influenzae IHMA N° 1258580,0.015 µg/mL
same,MIC,[3]; H. influenzae IHMA N° 1262734,0.015 µg/mL
same,MIC,[3]; H. influenzae IHMA N° 1272723,0.015 µg/mL
same,MIC,[3]; H. influenzae IHMA N° 1286846,0.015 µg/mL
same,MIC,[3]; H. influenzae IHMA N° 1337530,0.015 µg/mL
same,MIC,[3]; H. influenzae IHMA N° 1440085,0.015 µg/mL
same,MIC,[3]; H. influenzae IHMA N° 1479509,0.0015 µg/mL
same,MIC,[3]; H. influenzae IHMA N° 1952952,0.015 µg/mL
same,MIC,[3]; H. influenzae IHMA N° 2047461,0.008 µg/mL
same,No. of isolates at MIC,[4]; MIC 0.5 µg/mL,5
same,MIC,[4]; S. pneumoniae IHMA N° 1775387,1 µg/mL
same,MIC,[4]; S. pneumoniae IHMA N° 1776057,0.5 µg/mL
same,MIC,[4]; S. pneumoniae IHMA N° 1785617,0.5 µg/mL
same,MIC,[4]; S. pneumoniae IHMA N° 1800765,1 µg/mL
same,MIC,[4]; S. pneumoniae IHMA N° 1811259,0.5 µg/mL
same,MIC,[4]; S. pneumoniae IHMA N° 1831562,1 µg/mL
same,MIC,[4]; S. pneumoniae IHMA N° 1902609,1 µg/mL
same,MIC,[4]; S. pneumoniae IHMA N° 1979675,0.5 µg/mL
same,MIC,[4]; S. pneumoniae IHMA N° 1991963,> 32 µg/mL
same,MIC,[4]; S. pneumoniae IHMA N° 2057487,1 µg/mL
same,MIC,[4]; S. pneumoniae IHMA N° 2073087,1 µg/mL
same,MIC,[4]; S. pneumoniae IHMA N° 2117109,0.5 µg/mL
same,MIC,[7]; [15],1 µg/mL
same,MIC,[7]; [16],1 µg/mL
same,MIC,[8]; [17],0.015 µg/mL
same,MIC,[8]; [18],0.015 µg/mL
same,MIC,[9]; [19],0.015 µg/mL
same,MIC,[9]; [20],0.015 µg/mL
same,MIC,[11]; [21],0.5 µg/mL
same,MIC,[11]; [22],0.5 µg/mL
same,"MIC, CLSI Range",[12],"0,5 - 4 µg/mL"
same,"MIC, CLSI Range",[13],"0,25 - 2 µg/mL"
same,"MIC, CLSI Range",[14],"0,008 - 0,03 µg/mL"
